Test results: ChEMBL document CHEMBL5380814, “Targeting Receptor-Interacting Protein Kinase 1 by Novel Benzothiazole Derivatives: Treatment of Acute Lung Injury through the Necroptosis Pathway” (J Med Chem, 2023)
Activity calls are given as the source filed them. The calls are words filed in the database; no cut-off is given here.

Assays:
HT-29 [1] = experiment: Anti-necroptotic activity in human HT-29 cells assessed as inhibition of human TNFalpha/Smac mimetic/Z-VAD-FMK induced necroptosis preincubated with compound for 16 to 24 hrs followed by TSZ stimulation for 12 hrs measured by cell-titre glo luminescent cell viability assay; assay type: functional, cell-based
HT-29 [2] = experiment: Anti-necroptotic activity in human HT-29 cells assessed as inhibition of human TNFalpha/Smac mimetic/Z-VAD-FMK induced necroptosis preincubated with compound followed by TSZ stimulation for 12 hrs; assay type: functional, cell-based
HT-29 [3] = experiment: Cytotoxicity against human HT-29 cells incubated at 100 uM for 16 to 24 hrs measured by cell-titre glo luminescent cell viability assay; assay type: functional, cell-based; settings: time 16-24 hrs
HT-29 [4] = experiment: Cytotoxicity against human HT-29 cells incubated for 16 to 24 hrs measured by cell-titre glo luminescent cell viability assay; assay type: functional; settings: time 16-24 hrs
[5] = target: Receptor-interacting serine/threonine-protein kinase 3 (Homo sapiens, UniProt Q9Y572); experiment: Binding affinity to human wildtype full length RIPK3 (M1 to Q307 residues) expressed in bacterial expression system assessed as dissociation constant by kinome scan kd select based qPCR analysis
Chain of Receptor-interacting serine/threonine-protein kinase 3 (Q9Y572 whole entry, the tested form may be a part): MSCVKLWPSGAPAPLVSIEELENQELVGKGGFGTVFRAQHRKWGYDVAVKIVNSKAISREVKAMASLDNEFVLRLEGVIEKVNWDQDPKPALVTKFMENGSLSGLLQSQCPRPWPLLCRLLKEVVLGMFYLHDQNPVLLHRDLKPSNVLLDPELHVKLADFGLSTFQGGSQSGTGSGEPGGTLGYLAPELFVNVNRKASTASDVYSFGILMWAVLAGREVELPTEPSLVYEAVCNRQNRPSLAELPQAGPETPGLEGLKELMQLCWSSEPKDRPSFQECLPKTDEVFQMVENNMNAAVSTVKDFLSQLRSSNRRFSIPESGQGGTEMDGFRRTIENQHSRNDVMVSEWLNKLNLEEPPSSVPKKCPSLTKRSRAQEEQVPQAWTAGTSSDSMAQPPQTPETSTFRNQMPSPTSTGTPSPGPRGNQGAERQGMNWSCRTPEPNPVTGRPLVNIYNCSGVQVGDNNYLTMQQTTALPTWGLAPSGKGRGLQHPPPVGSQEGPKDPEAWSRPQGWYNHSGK

[6] = target: T1, Receptor-interacting serine/threonine-protein kinase 1 (Homo sapiens, UniProt Q13546); experiment: Binding affinity to human wildtype full length RIPK1 (M1 to K305 residues) expressed in bacterial expression system assessed as dissociation constant by kinome scan kd select based qPCR analysis
T1 sequence (Q13546 whole entry): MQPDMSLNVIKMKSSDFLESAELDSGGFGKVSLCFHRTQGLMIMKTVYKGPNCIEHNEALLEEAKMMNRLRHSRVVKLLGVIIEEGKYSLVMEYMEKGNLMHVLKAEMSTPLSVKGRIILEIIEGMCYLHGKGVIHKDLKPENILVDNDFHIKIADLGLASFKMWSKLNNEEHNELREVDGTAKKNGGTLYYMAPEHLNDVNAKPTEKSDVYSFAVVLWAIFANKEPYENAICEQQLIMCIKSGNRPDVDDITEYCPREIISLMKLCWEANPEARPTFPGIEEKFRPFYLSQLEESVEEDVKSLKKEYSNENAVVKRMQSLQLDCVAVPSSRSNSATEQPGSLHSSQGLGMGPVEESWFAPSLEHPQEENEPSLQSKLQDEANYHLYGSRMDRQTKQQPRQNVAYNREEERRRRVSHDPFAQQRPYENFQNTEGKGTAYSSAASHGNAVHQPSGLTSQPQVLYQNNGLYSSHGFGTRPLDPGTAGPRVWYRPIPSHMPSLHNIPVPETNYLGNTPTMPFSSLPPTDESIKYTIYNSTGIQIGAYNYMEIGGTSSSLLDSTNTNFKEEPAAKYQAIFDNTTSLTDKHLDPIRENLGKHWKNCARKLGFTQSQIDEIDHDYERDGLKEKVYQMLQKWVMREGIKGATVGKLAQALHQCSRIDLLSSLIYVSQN

Mus musculus = experiment: In vivo anti-inflammatory activity in NNK induced induced C57BL/6J ALI mouse model assessed as lung injury score pretreated at 5 mg/kg, ip for 1 hr followed by NNK administration relative to disease model (reference value: 5.7 +/- 0.5); assay type: functional

| SMILES | EC50 (HT-29 [1]) [nM] | Activity (HT-29 [2]) | Activity (HT-29 [3]) | CC50 (HT-29 [4]) [nM] | Kd [5] [nM] | Kd [6] [nM] | EC50 (HT-29 [2]) [nM] | Activity (Mus musculus) |
| --- | --- | --- | --- | --- | --- | --- | --- | --- |
| CCCS(=O)(=O)NC1CCC(C(=O)Nc2nc3cc(F)c(Oc4ccc(F)c(NC(=O)Cc5cccc(C(F)(F)F)c5)c4)cc3s2)CC1 (centres undefined) | 119 | inactive | Active | > 100000 |  |  |  |  |
| CC(C)(C)OC(=O)NC1CCC(C(=O)Nc2nc3cc(F)c(Oc4ccc(F)c(NC(=O)Cc5cccc(C(F)(F)F)c5)c4)cc3s2)CC1 (centres undefined) | 136 | inactive | Active | > 100000 |  |  |  |  |
| CCCC(=O)NC1CCC(C(=O)Nc2nc3cc(F)c(Oc4ccc(F)c(NC(=O)Cc5cccc(C(F)(F)F)c5)c4)cc3s2)CC1 (centres undefined) | 82.7 | inactive | Active | > 100000 |  |  |  |  |
| CCCC1CCC(C2CCC(C(=O)Nc3nc4cc(F)c(Oc5ccc(F)c(NC(=O)Cc6cccc(C(F)(F)F)c6)c5)cc4s3)CC2)CC1 (centres undefined) | > 10000 | inactive | Active | > 100000 |  |  |  |  |
| O=C(Cc1cccc(C(F)(F)F)c1)Nc1cc(Oc2cc3sc(NC(=O)C4CCC(NC(=O)CCCl)CC4)nc3cc2F)ccc1F (centres undefined) | 50 | inactive | Active | > 100000 | > 10000 | 43 |  |  |
| O=C(Cc1cccc(C(F)(F)F)c1)Nc1cc(Oc2cc3sc(NC(=O)C4CCC(NC(=O)OCc5ccccc5)CC4)nc3cc2F)ccc1F (centres undefined) | 945 | inactive | Active | > 100000 |  |  |  |  |
| O=C(Cc1cccc(C(F)(F)F)c1)Nc1cc(Oc2cc3sc(NC(=O)C4CCC(NC(=O)C5CCCC5)CC4)nc3cc2F)ccc1F (centres undefined) | 72.9 | inactive | Active | > 100000 |  |  |  |  |
| O=C(Cc1cccc(C(F)(F)F)c1)Nc1cc(Oc2cc3sc(NC(=O)C4CCC(O)CC4)nc3cc2F)ccc1F (centres undefined) | 95.6 | inactive | Active | > 100000 |  |  |  |  |
| O=C(Cc1cccc(C(F)(F)F)c1)Nc1cc(Oc2cc3sc(NC(=O)C4CCC(NC(=O)c5ccc(F)cc5)CC4)nc3cc2F)ccc1F (centres undefined) | 55.2 | inactive | Active | > 100000 |  |  |  |  |
| CCCC1CCC(C(=O)Nc2nc3cc(F)c(Oc4ccc(F)c(NC(=O)Cc5cccc(C(F)(F)F)c5)c4)cc3s2)CC1 (centres undefined) | > 10000 | inactive | Active | > 100000 |  |  |  |  |
| CCCCC(=O)NC1CCC(C(=O)Nc2nc3cc(F)c(Oc4ccc(F)c(NC(=O)Cc5cccc(C(F)(F)F)c5)c4)cc3s2)CC1 (centres undefined) | 42.4 | inactive | Active | > 100000 | > 10000 | 45 |  |  |
| O=C(Cc1cccc(C(F)(F)F)c1)Nc1cc(Oc2cc3sc(NC(=O)C4CCC(NC(=O)c5cccs5)CC4)nc3cc2F)ccc1F (centres undefined) | 52.9 | inactive | Active | > 100000 | > 10000 | 69 |  |  |
| N#Cc1c(Oc2ccc(F)c(NC(=O)Cc3cccc(C(F)(F)F)c3)c2)ccc2nc(NC(=O)C3CC3)sc12 |  |  |  | > 50000 |  |  |  |  |
| CC(C)C(=O)NC1CCC(C(=O)Nc2nc3cc(F)c(Oc4ccc(F)c(NC(=O)Cc5cccc(C(F)(F)F)c5)c4)cc3s2)CC1 (centres undefined) | 34.1 | inactive | Active | > 100000 | > 10000 | 15 |  |  |
| CC(=O)OCC(=O)NC1CCC(C(=O)Nc2nc3cc(F)c(Oc4ccc(F)c(NC(=O)Cc5cccc(C(F)(F)F)c5)c4)cc3s2)CC1 (centres undefined) | 81.8 | inactive | Active | > 100000 |  |  |  |  |
| O=C(Cc1cccc(C(F)(F)F)c1)Nc1cc(Oc2cc3sc(NC(=O)C4CCCC(NC(=O)C5CC5)C4)nc3cc2F)ccc1F (centres undefined) | 71.2 | inactive | Active | > 100000 |  |  |  |  |
| O=C1CCC(C(=O)Nc2nc3ccc(Oc4ccc(F)c(NC(=O)Cc5cccc(C(F)(F)F)c5)c4)cc3s2)CC1 |  |  |  | > 50000 |  |  | 50 |  |
| C[C@@H]1C[C@H]2[C@@H]3CCC4=CC(=O)C=C[C@]4(C)[C@@]3(F)[C@@H](O)C[C@]2(C)[C@@]1(O)C(=O)CO [DEXAMETHASONE] |  |  |  |  |  |  |  | 3.7 |
| CCOCC(=O)NC1CCC(C(=O)Nc2nc3cc(F)c(Oc4ccc(F)c(NC(=O)Cc5cccc(C(F)(F)F)c5)c4)cc3s2)CC1 (centres undefined) | 48.4 | inactive | Active | > 100000 | > 10000 | 15 |  |  |
| O=C(Cc1cccc(C(F)(F)F)c1)Nc1cc(Oc2cc3sc(NC(=O)C4CCC(NC(=O)C5CC5)CC4)nc3cc2F)ccc1F (centres undefined) | 50.5 | inactive | Active | > 100000 |  |  |  |  |
| O=C(Cc1cccc(C(F)(F)F)c1)Nc1cc(Oc2cc3sc(NC(=O)C4CCC(NS(=O)(=O)c5ccccc5)CC4)nc3cc2F)ccc1F (centres undefined) | 234 | inactive | Active | > 100000 |  |  |  |  |
| CCC(=O)NC1CCC(C(=O)Nc2nc3cc(F)c(Oc4ccc(F)c(NC(=O)Cc5cccc(C(F)(F)F)c5)c4)cc3s2)CC1 (centres undefined) | 83.2 | inactive | Active | > 100000 |  |  |  |  |
| CC(C)CC(=O)NC1CCC(C(=O)Nc2nc3cc(F)c(Oc4ccc(F)c(NC(=O)Cc5cccc(C(F)(F)F)c5)c4)cc3s2)CC1 (centres undefined) | 47.5 | inactive | Active | > 100000 |  |  |  |  |
| CC(C)(C)OC(=O)NC1CCCC(C(=O)Nc2nc3cc(F)c(Oc4ccc(F)c(NC(=O)Cc5cccc(C(F)(F)F)c5)c4)cc3s2)C1 (centres undefined) | 334 | inactive | Active | > 100000 |  |  |  |  |
| COCC(=O)NC1CCC(C(=O)Nc2nc3cc(F)c(Oc4ccc(F)c(NC(=O)Cc5cccc(C(F)(F)F)c5)c4)cc3s2)CC1 (centres undefined) | 44.8 | inactive | Active | > 100000 | > 10000 | 15 |  |  |
